US20130310362A1, “FUSED PYRIMIDINES” (BAYER PHARMA AKTIEGESELLSCHAFT, priority 2009, published 2013)

Columns and labels:
[1] = system: Akt phosphorylation (Ser473) in MCF7 cells; assay: Cellular PI3K/Akt pathway assay (Phospho-Akt1 (Ser473) sandwich ELISA); type: cell-based; details: Homo sapiens, β-Heregulin stimulated, 48 h incubation, read-out: IC50 p-Akt (Biological Assay 5.0)
Procedure: Biological Assay 5.0: Cellular PI3K/Akt Pathway Assay
In order to study the cellular activity of the compounds according to the present invention, an Enzyme Linked Immunosorbent Assay (ELISA)-based assay may be used to investigate the inhibitory effect on Akt phosphorylation.
The ELISA Kit detects endogenous levels of phosphorylated Akt protein. […] After incubation with cell lysates, the coated antibody captures the phosphorylated Akt protein. […] The magnitude of optical density for this developed color is proportional to the quantity of phosphorylated Akt protein. MCF7 cells (ATCC HTB-22) are seeded into 96 well fate bottom plates at a density of 10000 cells/well. 24 hours after seeding, the cells are serum starved using low-serum medium (IMEM media including 0.1% charcoal treated FCS (FCS: fetal calf serum)). After 24 hours 1 μl each of the compound dilutions (test compounds were dissolved as 10 mM solutions in dimethylsulfoxide (DMSO) and subsequently diluted) are added into each well of the 96 well plates and incubated for 48 h at 37° C. in a humidified athmosphere containing 5% CO2. To stimulate Akt phosphorylation, β-Heregulin (20 ng/mL β-HRG) is added in parallel to the compounds. Wells containing unstimulated control cells (no β-Heregulin stimulation) are incubated with or without the diluted compound. Wells containing untreated control cells (no compound) are filled with medium containing 0.5% v:v DMSO and are or are not stimulated with 3-Heregulin.
Cells are harvested and lysed with brief sonification in 1× cell lysis buffer (20 mM Tris (pH7.5), 150 mM NaCl, 1 mM ethylene diaminetetraacetate (EDTA), 1 mM ethylene glycolbis(2-aminoethyl)-N,N,N′,N′-tetraacetic acid (EGTA), 1 vol % Triton X-100, 2.5 mM sodium pyrophosphate, 1 mM β-glycerolphosphate, 1 mM Na3VO4, 1 μg/mL leupeptin). The lysate is centrifuged for 10 min. at 4° C. and the supernatant is transferred to a new tube. […] The absorbance is measured at λ=450 nm (Wallac Victor2; Perkin Elmer, USA) within 30 min. after adding the STOP solution. […]

[2] = target: T1, human recombinant kinase full-length Akt1 (Homo sapiens, UniProt P31749); assay: Akt1 kinase assay (TR-FRET); type: biochemical; details: 10 μM ATP, 1 μM peptide substrate, 60 min at 22° C.; read-out: IC50 Akt1 Biological Assay 1.0)
T1 construct: human recombinant kinase full-length Akt1; His; purchased Invitrogen PV 3599; host or cells: insect cells
T1 sequence (P31749 whole entry): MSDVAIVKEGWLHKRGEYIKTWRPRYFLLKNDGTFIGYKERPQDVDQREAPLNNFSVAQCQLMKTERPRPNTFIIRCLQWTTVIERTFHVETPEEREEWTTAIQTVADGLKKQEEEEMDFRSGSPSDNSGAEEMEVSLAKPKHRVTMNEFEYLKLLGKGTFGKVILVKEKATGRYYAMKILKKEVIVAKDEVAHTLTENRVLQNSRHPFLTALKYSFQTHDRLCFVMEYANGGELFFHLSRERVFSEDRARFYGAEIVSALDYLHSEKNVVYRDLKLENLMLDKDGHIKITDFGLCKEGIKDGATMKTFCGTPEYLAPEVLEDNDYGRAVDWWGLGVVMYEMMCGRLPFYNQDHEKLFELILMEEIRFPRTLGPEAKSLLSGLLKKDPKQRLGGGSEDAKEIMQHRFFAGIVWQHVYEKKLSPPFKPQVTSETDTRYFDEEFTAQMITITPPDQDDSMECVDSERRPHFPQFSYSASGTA
From the text: Biological Assay 1.0: Akt1 Kinase Assay
Akt1 inhibitory activity of compounds of the present invention may be quantified employing the Akt1 TR-FRET assay as described in the following paragraphs.
His-tagged human recombinant kinase full-length Akt1 expressed in insect cells was purchased form Invitrogen (part number PV 3599). As substrate for the kinase reaction the biotinylated peptide biotin-Ahx-KKLNRTLSFAEPG (C-terminus in amide form) was used which can be purchased e.g. from the company Biosynthan GmbH (Berlin-Buch, Germany).
(§1) For the assay 50 nl of a 100 fold concentrated solution of the test compound in DMSO was pipetted into a black low volume 384 well microtiter plate (Greiner Bio-One, Frickenhausen, Germany), 2 μl of a solution of Akt1 in assay buffer [50 mM TRIS/HCl pH 7.5, 5 mM MgCl2, 1 mM dithiothreitol, 0.02% (v/v) Triton X-100 (Sigma)] were added and the mixture was incubated for 15 min at 22° C. to allow pre-binding of the test compounds to the enzyme before the start of the kinase reaction. Then the kinase reaction was started by the addition of 3 μl of a solution of adenosine-tri-phosphate (ATP, 16.7 μM=>final conc. in the 5 μl assay volume is 10 μM) and substrate (1.67 μM=>final conc. in the 5 μl assay volume is 1 μM) in assay buffer and the resulting mixture was incubated for a reaction time of 60 min at 22° C. The concentration of Akt1 in the assay was adjusted depending of the activity of the enzyme lot and was chosen appropriate to have the assay in the linear range, typical enzyme concentrations were in the range of about 0.05 ng/μl (final conc. in the 5 μl assay volume).
(§2) The reaction was stopped by the addition of 5 μl of a solution of HTRF detection reagents (200 nM streptavidine-XL665 [Cisbio] and 1.5 nM anti-phosho-Serine antibody [Millipore, cat. #35-001] and 0.75 nM LANCE Eu-W 1024 labeled anti-mouse IgG antibody [Perkin Elmer]) in an aqueous EDTA-solution (100 mM EDTA, 0.1% (w/v) bovine serum albumin in 50 mM HEPES/NaOH pH 7.5). The resulting mixture was incubated 1 h at 22° C. to allow the binding of the biotinylated phosphorylated peptide to the streptavidine-XL665 and the antibodies. Subsequently the amount of phosphorylated substrate was evaluated by measurement of the resonance energy transfer from the anti-mouse-IgG-Eu-Chelate to the streptavidine-XL665. Therefore, the fluorescence emissions at 620 nm and 665 nm after excitation at 350 nm was measured in a HTRF reader, e.g. a Rubystar (BMG Labtechnologies, Offenburg, Germany) or a Viewlux (Perkin-Elmer). The ratio of the emissions at 665 nm and at […] was taken as the measure for the amount of phosphorylated substrate. The data were normalised (enzyme reaction without inhibitor=0% inhibition, all other assay components but no enzyme=100% inhibition). Normally test compound were tested on the same microtiter plate at 10 different concentrations in the range of 20 μM to 1 nM (20 μM, 6.7 μM, 2.2 μM, 0.74 μM, 0.25 μM, 82 nM, 27 nM, 9.2 nM, 3.1 nM and 1 nM, dilution series prepared before the assay at the level of the 100 fold conc. stock solutions by serial 1:3 dilutions) in duplicate values for each concentration and 1050 values were calculated by a 4 parameter fit using an inhouse software.

[3] = target: T2, human recombinant kinase full-length Akt2 (Homo sapiens, UniProt P31751); assay: Akt2 kinase assay (TR-FRET); type: biochemical; details: Akt2 activated by PDK1, 10 μM ATP, 1 μM peptide substrate, 60 min at 22° C.; read-out: IC50 Akt2 (Biological Assay 2.0)
T2 construct: human recombinant kinase full-length Akt2; His; purchased Invitrogen PV 3975; host or cells: insect cells
T2 sequence (P31751 whole entry): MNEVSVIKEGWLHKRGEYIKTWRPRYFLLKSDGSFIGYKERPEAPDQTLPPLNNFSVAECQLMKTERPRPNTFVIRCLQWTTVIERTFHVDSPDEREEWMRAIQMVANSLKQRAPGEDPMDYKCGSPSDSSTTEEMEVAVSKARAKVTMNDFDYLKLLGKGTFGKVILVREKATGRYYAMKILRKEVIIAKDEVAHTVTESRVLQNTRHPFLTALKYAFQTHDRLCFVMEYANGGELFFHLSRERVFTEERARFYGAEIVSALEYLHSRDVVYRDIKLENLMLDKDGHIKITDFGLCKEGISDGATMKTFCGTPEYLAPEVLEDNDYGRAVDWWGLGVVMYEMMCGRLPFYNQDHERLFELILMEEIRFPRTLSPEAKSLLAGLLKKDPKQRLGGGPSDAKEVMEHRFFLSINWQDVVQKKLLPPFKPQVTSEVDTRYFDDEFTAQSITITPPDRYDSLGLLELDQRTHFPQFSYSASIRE
From the text: Biological Assay 2.0: Akt2 Kinase Assay
Akt2 inhibitory activity of compounds of the present invention was quantified employing the Akt2 TR-FRET assay as described in the following paragraphs.
as §1, with “His-tagged human recombinant kinase full-length Akt2 expressed in insect cells and activated by PDK1 was purchased form Invitrogen (part number PV 3975). As substrate for the kinase reaction the biotinylated peptide biotin-Ahx-KKLNRTLSFAEPG (C-terminus in amide form) was used which can be purchased e.g. from the company Biosynthan GmbH (Berlin-Buch, Germany). For” for “For”, “Akt2” for “Akt1”, “0.2” for “0.05”
as §2, with “a TR-FRET” for “a HTRF”, “inhibition).” for “inhibition). Normally test compound were tested on the same microtiter plate at 10 different concentrations in the range of 20 μM to 1 nM (20 μM, 6.7 μM, 2.2 μM, 0.74 μM, 0.25 μM, 82 nM, 27 nM, 9.2 nM, 3.1 nM and 1 nM, dilution series prepared before the assay at the level of the 100 fold conc. stock solutions by serial 1:3 dilutions) in duplicate values for each concentration and 1050 values were calculated by a 4 parameter fit using an inhouse software.”

Structure (SMILES) | IC50 [1] | IC50 [2] | IC50 [3]
Cc1nc(-c2ccc(CN3CCC(c4n[nH]c(-c5ccccn5)n4)CC3)cc2)c(-c2ccccc2)c2nccn12 [Example 1.0, 5-methyl-8-phenyl-7-{4-[4-(5-pyridin-2-yl-1H-[1,2,4]triazol-3-yl)-piperidin-1-ylmethyl]-phenyl}-imidazo[1,2-c]pyrimidine] | < 50 nM | 4 nM | 53 nM
c1ccc(-c2c(-c3ccc(CN4CCC(c5n[nH]c(-c6ccccn6)n5)CC4)cc3)ncn3ccnc23)cc1 [Example 2.0, 8-phenyl-7-{4-[4-(5-pyridin-2-yl-1H-[1,2,4]triazol-3-yl)-piperidin-1-ylmethyl]-phenyl}-imidazo[1,2-c]pyrimidine] | 8 nM | 8 nM | 42 nM
